Test results: patent US12364679B2, “Esters for treatment of ocular inflammatory conditions” (Johnson & Johnson Vision Care, Inc., priority 2011, dated 2025)

Legend:
[1] = tested on: transepithelial permeability in vitro model; experiment: Transepithelial permeability in vitro model (TEP test), fluorescein leakage; assay type: cell-based; conditions: 0.2%, relative to vehicle/controls
Method: The compositions of Examples 1A and 1B and Comparative Example 2A were tested in vitro as follows. A transepithelial permeability in vitro model (TEP test) was used to assess fluorescein leakage (or increased transepithelial permeability) with the free acid in comparison with the ester form of the alpha linolenic acid.

[2] = Uptake by senofilcon contact lenses from IPA solution, gas chromatography; assay type: physicochemical
Method: ALA-EE was dissolved in isopropanol (IPA) at the concentration of 0.05 or 0.5%. Silicone hydrogel contact lenses (senofilcon, commercially available as ACUVUE® OASYS® with […]® Plus lenses) were then allowed to soak in the ALA-EE-containing IPA for up to 1 hour at room temperature, followed by soaking in ALA-EE containing IPA/packing solution (70% IPA/30% packing solution) for up to 1 hour, rinsing in packing solution, and packaging of lenses in the packing solution. ALA-EE uptake by the contact lenses was quantified by gas chromatography.
A comparative silicone hydrogel contact lens that incorporated alpha linolenic acid (ALA), rather than the ester, was prepared following the same protocol as Example 6.

[3] = tested on: corneal epithelium tissue construct (HCE construct, SkinEthic); conditions: human, 8 h
Method: (§1) The model uses a corneal epithelium tissue construct (e.g., HCE construct manufactured by SkinEthic).
(§2) The esterified anti-inflammatory lipid mediator dose-responses were then evaluated in the construct, whereby 30 microliters of the rewetting drop was topically applied to the tissue for 8 or 24 hours, and cell viability was then quantified along with a subset of selected potential biomarkers within the tissue culture media.

[4] = Uptake by narafilcon B contact lenses from propylene glycol solution, gas chromatography; assay type: physicochemical; conditions: for ALA-EE uptake: narafilcon B
Method: The alpha linolenic acid ethyl ester (ALA-EE) was dissolved in propylene glycol (PG) at concentrations of 0.05 and 0.5%, and silicon hydrogel lenses (Narafilcon B lenses (ACUVUE® TrueEye®)) were hydrated or soaked in the ALA-EE-containing propylene glycol solution for one hour at room temperature, followed by rinsing in DI water and repackaging of lenses in the packing solution. The lenses were packaging in borate buffer packing solution with 50 ppm methyl cellulose and autoclaved at 121° C. for 19 minutes. ALA-EE was quantified by gas chromatography.

[5] = tested on: "contact lens induced dry eye" subjects; experiment: Comfort upon instillation to the eye (non-dispensing clinical studies); conditions: human, in vivo
Method: Preliminary non-dispensing clinical studies were conducted to further assess the use of omega-three fatty acid compositions. A 0.05 wt. % concentration ester version of an omega-three fatty acid was instilled on three “contact lens induced dry eye” subjects (each with at least one sign and one symptom of contact lens induced dry eye) without any acute ocular discomfort or physiological findings. Similarly, a 0.2 wt. % concentration ester version of the omega-three fatty acid was instilled on four “contact lens induced dry eye” subjects without any acute ocular discomfort or physiological findings.

[6] = tested on: corneal epithelium tissue construct (HCE construct, SkinEthic); experiment: Corneal epithelial tissue model, cell viability (MTT), 8 hour exposure; conditions: 0.001 and 0.01%
Method: as §1, §2

uptake of ALA by the contact lenses ([2]; 0.05% ALA solution in IPA) | uptake of ALA by the contact lenses ([2]; 0.5% ALA solution in IPA) | impact on the in vitro endpoint, times less than linolenic acid (ALA) [3] | hydrolysis of the ester to the acid ([4]; narafilcon B lens, PG loading, autoclaved 121° C.) | ALA-EE uptake ([4]; 0.05% ALA-EE solution) | ALA-EE uptake ([4]; 0.5% ALA-EE solution) | response on the eye (acute ocular discomfort) [5] | ALA-EE uptake ([2]; 0.05% ALA-EE solution in IPA) | ALA-EE uptake ([2]; 0.5% ALA-EE solution in IPA) | hydrolysis of ester to free acid form ([2]; senofilcon lens loading from IPA) | Molecule | effect on transepithelial permeability / fluorescein leakage [1] | cytotoxicity in the construct [6]
23 micrograms per lens | 300 micrograms per lens |  |  |  |  |  |  |  |  | CC/C=C\C/C=C\C/C=C\CCCCCCCC(=O)O [ALA, alpha-linolenic acid, reference compound] | significant increase in fluorescein leakage | 
 |  | 10 times | no detectable hydrolysis | 91 micrograms per lens | 721 micrograms per lens | lack of acute ocular discomfort | 54 micrograms per lens | 611 micrograms per lens | did not hydrolyze to the free acid form | CC/C=C\C/C=C\C/C=C\CCCCCCCC(=O)OCC [ALA-EE, ethyl linolenate] | behaved similarly to the vehicle | 
 |  |  |  |  |  |  |  |  |  | benzalkonium chloride [BAK] |  | non-cytotoxic
